Laboratory results taken from ChEMBL document CHEMBL1124906, “5'-O-phosphonomethyl-2',3'-dideoxynucleosides: synthesis and anti-HIV activity” (J Med Chem, 1990).

Legend:
[1] = Selectivity index is the ratio of CC50 to EC50; assay type: functional
[2] = tested on: MT4; test: Cytotoxic concentration required to reduce the viability of normal uninfected MT-4 cells by 50%; assay type: functional, Homo sapiens
[3] = tested on: MT4; test: Effective concentration achieving 50% protection of MT-4 cells against the cytopathic effect of HIV-1; assay type: functional, cell-based, Homo sapiens
[4] = biological target: Human immunodeficiency virus type 1 reverse transcriptase (Human immunodeficiency virus 1, UniProt Q72547); test: Compound was evaluated for the 50% inhibitory concentration on human immunodeficiency virus associated reverse transcriptase

IC50 [4] [µM]	SMILES	SI [1]	CC50 ([2]; Homo sapiens, MT4) [µM]	EC50 ([3]; Homo sapiens, MT4) [µM]	CC50 [2] [µM]	EC50 ([3]; mt4) [µM]
	Cc1cn([C@H]2C[C@H](N=[N+]=[N-])[C@@H](CO)O2)c(=O)[nH]c1=O [ZIDOVUDINE]	1600	4.8	0.003		
	Cc1cn([C@H]2C[C@H](N=[N+]=[N-])[C@@H](COCP(=O)(O)O)O2)c(=O)[nH]c1=O	125	161	1.28		
322	CC1CN([C@H]2C[C@H](N=[N+]=[N-])[C@@H](COCP(=O)(O)OP(=O)(O)OP(=O)(O)O)O2)C(=O)NC1=O (some centres undefined)					
	Cc1cn([C@H]2C[C@H](N)[C@@H](COCP(=O)(O)O)O2)c(=O)[nH]c1=O	> 1	> 500	> 500		
	Cc1cn([C@H]2C[C@H](F)[C@@H](COCP(=O)(O)O)O2)c(=O)[nH]c1=O	19	17.3	0.9		
	Cc1cn([C@H]2C[C@H](N=[N+]=[N-])[C@@H](COCP(=O)(O)OP(=O)(O)OP(=O)(O)O)O2)c(=O)[nH]c1=O		0.023	1.15		
	Nc1ccn([C@H]2CC[C@@H](COCP(=O)(O)O)O2)c(=O)n1	> 1	> 500	> 500		
	CO[C@H]1C[C@H](n2cc(C)c(=O)[nH]c2=O)O[C@@H]1COCP(=O)(O)O	> 1	> 500	500		
	CCOP(=O)(O)COC[C@@H]1CC[C@H](N2CCC(=N)NC2=O)O1		> 500	> 500		
	Cc1cn([C@H]2C[C@H](F)[C@@H](COCP(=O)(O)OP(=O)(O)OP(=O)(O)O)O2)c(=O)[nH]c1=O (stereo in doubt; 30)	> 5			> 500	100
	Cc1cn([C@H]2CC[C@@H](COCP(=O)(O)O)O2)c(=O)[nH]c1=O	> 1	> 500	500		
	Cc1cn([C@H]2C[C@H](F)[C@@H](CO)O2)c(=O)[nH]c1=O [ALOVUDINE]	197		0.001		
	O=c1ccn([C@H]2CC[C@@H](COCP(=O)(O)O)O2)c(=O)[nH]1	> 5	> 500	90		
